# According to patent US5565489A, “Epoxycyclohexenedione derivatives” (Kyowa Hakko Kogyo Co., Ltd., priority 1993, dated 1996):
# What was measured:
# [1] = system: Enterococcus faecium ATCC 10541; experiment: Antimicrobial activity, agar dilution method (EF); assay type: cell-based; conditions: ATCC10541, pH 7
# Description: (§1) Antimicrobial activity was measured by an agar dilution method using a culture medium (pH 7) prepared by dissolving 3 g of Bacto-tryptone (Difco), 3 g of meat extract, 1 g of yeast extract, 1 g of glucose, and 16 g of agar in 1 l of water. The antimicrobial activity was expressed in terms of minimum growth inhibitory concentration (MIC).
# FTase [2] = molecular target: T1, FTase (Bos taurus, UniProt P29702+P49355); experiment: FTase inhibitory activity (farnesylation of C-terminal peptide of lamin B, crude bovine brain enzyme, FTase [^3 H]SPA enzyme assay kit); assay type: biochemical; conditions: for inhibitory activity against FTase (in words): Table 2 summary; for IC50: bovine brain enzyme, lamin B C-terminal peptide
# T1 construct: An extract of minced bovine brain was subjected to column chromatography on DEAE-Sephacel (Pharmacia); from tissue; host or cells: bovine brain; DEAE-Sephacel active fraction, crude enzyme solution
# Description: (§2) FTase Inhibitory Activity
# An extract of minced bovine brain was subjected to column chromatography on DEAE-Sephacel (Pharmacia). The active fraction was concentrated by ultrafiltration and dialyzed against a mixture of 20 mM Tris-HCl (pH 8.0), 50 mM NaCl, […], 1 mM DTT, 0.2 mM phenylmethylsulfonyl fluoride (PMSF). The resulting dialysate was used as a crude enzyme solution. Measurement of activity was carried out by using the enzyme obtained by the above-mentioned method and an FTase [^3 H]SPA enzyme assay kit (Amersham). Enzyme inhibitory activity was measured as inhibition of farnesylation of the C-terminal peptide of lamin B by the test compound in the above-mentioned reaction system. The enzyme inhibitory activity of a group treated with a test compound of a known concentration was compared with that of a non-treated group to calculate the concentration of the test compound for 50% inhibition of farnesylation (IC50).
# [3] = system: Staphylococcus aureus, Enterococcus faecium, Bacillus subtilis; experiment: Antimicrobial activity, agar dilution method (summary of Table 4); assay type: cell-based; conditions: Table 4 summary
# Description: as §1
# [4] = system: Bacillus subtilis No. 10707; experiment: Antimicrobial activity, agar dilution method (BS); assay type: cell-based; conditions: pH 7
# Description: as §1
# [5] = system: Staphylococcus aureus ATCC 6538P; experiment: Antimicrobial activity, agar dilution method (SA); assay type: cell-based; conditions: ATCC6538P, pH 7
# Description: as §1
# FTase of yeast origin = conditions: ras protein of yeast origin as substrate; read-out: IC50 against FTase of yeast origin; cited from earlier work
# FTase [6] = molecular target: T2, FTase (Rattus norvegicus, UniProt Q02293+Q04631); experiment: FTase inhibitory activity (farnesylation of v-Ki-ras p21, partially purified rat brain FTase); assay type: biochemical; conditions: for IC50: rat brain FTase, v-Ki-ras p21 substrate
# T2 construct: The FTase used for the assay was obtained from rat brain as follows; from tissue; host or cells: male rat brain; ammonium sulfate fraction, Mono Q 10/10, partially purified
# Description: as §2
# The FTase used for the assay was obtained from rat brain as follows. An extract of minced brain of a male rat was salted out using ammonium sulfate. The fraction obtained at 50% saturation was dissolved in a buffer solution (20 mM Tris-HCl, pH 7.5, 1 mM dithiothreitol (DTT), 20 μM ZnCl2) and further fractionated by column chromatography using a Mono Q 10/10 column. The column was eluted by gradient elution with 0.3 to 0.4 M NaCl. The active fraction eluted at near 0.35 M NaCl, was used as a partially purified preparation. Measurement of the activity was carried out by using the thus prepared enzyme and v-Ki-ras p21 as a substrate. The v-Ki-ras p21, used as a substrate, was obtained by high expression using Escherichia coli, followed by purification according to the method of Tamaoki, et al. [Biochem. Biophys. […] The enzyme inhibitory activity was measured as inhibition of the test compound on farnesylation of the C-terminal of v-ki-ras p21 in the above-mentioned reaction system.
# FTase [7] = conditions: not numerically described; cited from earlier work
# [8] = system: NIH 3T3 fibroblasts transformed by oncogene EJ-ras; experiment: Inhibitory activity on cell growth of NIH 3T3/EJ-ras; assay type: cell-based
# Description: Inhibitory Activity on Cell Growth
# The antitumor activity was measured by using NIH 3T3 fibroblasts transformed by oncogene EJ-ras (hereinafter referred to as "NIH 3T3/EJ-ras").
# NIH 3T3/EJ-ras cells were suspended in a DME medium (Nissui KK) containing 10% fetal bovine serum, penicillin (100 U/ml) and streptomycin (100 μg/ml) (hereinafter referred to as medium A) in a cell concentration of 1.0×10^4 cells/ml. Each well of a […] microtiter plate was inoculated with 0.1 ml of the cell suspension, and the system was monolayer cultured by incubation in a carbondioxide incubator at 37° C. for 24 hours. To each well was added 0.1 ml of a test compound appropriately diluted with medium A, followed by incubation in the carbondioxide incubator at 37° C. for 72 hours. The cells were recovered by trypsinization, and the number of the cells was counted with a cell counter. A concentration of the test compound for 50% inhibition of cell growth (IC50) was calculated.
SMILES,MIC [1] [µg/mL],IC50 (FTase [2]) [µM],MIC [4] [µg/mL],MIC [5] [µg/mL],inhibitory activity against FTase (in words) (FTase [2]),antimicrobial activity (in words) [3],FTase inhibitory activity (in words) (FTase [7]),other results
"CCCC[C@@H](C)/C=C(C)/C=C(\C)C(=O)NC1=C[C@](O)(/C=C/C=C/C=C/C(=O)NC2=C(O)CCC2=O)[C@@H]2O[C@@H]2C1=O [Manumycin, reference compound]",,,,,,,,IC50 (FTase of yeast origin): 5 µM; IC50 (FTase [6]; Experiment 1): 76 µM; IC50 (FTase [6]; Experiment 2): 35 µM
CCCCC(C)/C=C(C)/C=C/C(=O)NC1=CC(=O)[C@@H]2O[C@@H]2C1=O (stereo partly drawn) [IVc],,,,,,,the activity of these compounds can be detected,
CCCCC(C)/C=C(\C)C(=O)NC1=CC(=O)[C@@H]2O[C@@H]2C1=O (stereo partly drawn) [IVb],,,,,,,the activity of these compounds can be detected,
"CCCC[C@@H](C)/C=C(C)/C=C(\C)C(=O)NC1=CC(=O)[C@@H]2O[C@@H]2C1=O [IVa, reference compound]",,,,,,,the activity of these compounds can be detected,IC50 (FTase [6]; Experiment 2): 60 µM

# Second part, led by results:
MIC [1] [µg/mL],IC50 (FTase [2]) [µM],MIC [4] [µg/mL],MIC [5] [µg/mL],SMILES,inhibitory activity against FTase (in words) (FTase [2]),antimicrobial activity (in words) [3],FTase inhibitory activity (in words) (FTase [7]),other results
0.65,23,0.65,> 100,"CC(C)=CCC/C(C)=C/CC/C(C)=C/CC/C(C)=C/C(=O)NC1=CC(=O)C2OC2C1=O (stereo not drawn) [Compound I-5, 4,5-Epoxy-1-geranylgeranoylamino-3,6-dioxocyclohexene]",obvious inhibitory activity against FTase,remarkable antimicrobial activity,,
0.33,19,0.65,> 100,"CCCCC/C=C\C/C=C\CCCCCCCC(=O)NC1=CC(=O)C2OC2C1=O (stereo not drawn) [Compound I-4, 4,5-Epoxy-1-linoleoylamino-3,6-dioxocyclohexene]",obvious inhibitory activity against FTase,remarkable antimicrobial activity,,
0.04,21,0.08,> 100,"CCCCCCCCCCCC(=O)NC1=CC(=O)C2OC2C1=O (stereo not drawn) [Compound I-2, 4,5-Epoxy-l-lauroylamino-3,6-dioxocyclohexene]",obvious inhibitory activity against FTase,remarkable antimicrobial activity,,
0.46,21,0.46,0.91,"CC(C)=CCC/C(C)=C/CC/C(C)=C/C(=O)NC1=CC(=O)[C@@H]2O[C@@H]2C1=O (relative stereo) [Compound I-1, 4,5-Epoxy-1-farnesoylamino-3,6-dioxocyclohexene]",obvious inhibitory activity against FTase,remarkable antimicrobial activity,,"IC50 ([8]; Mus musculus, NIH3T3, NIH 3T3/EJ-ras, 72 hours): 4.3 µM; inhibitory activity on growth (in words) ([8]; Table 3 summary): obvious inhibitory activity on growth of the NIH 3T3 fibroblasts transformed by oncogene EJ-ras; IC50 (FTase [6]; Experiment 1): 18 µM; inhibitory activity against FTase (in words) (FTase [6]; Table 1 summary): obvious inhibitory activity against FTase; inhibitory activity compared with manumycin and compound IVa (in words) (FTase [6]; Table 1 summary, as compared with manumycin and compound IVa): significantly strong as compared with those of manumycin and compound IVa"
